Measurements: ChEMBL document CHEMBL3507680, “University of Dundee, Gates Library screen for HepG2 cell viability”

Assay: Human HepG2 cell viability assay in 384 well format
Format: toxicity, cell-based
Parameters: dose 125 nL, time 70.5 hour; concentration not given beside the values
Settings: HepG2 cells, read-out: Inhibition

Row | SMILES | cytotoxicity at 70.5 h
1 | CC(=O)N(Cc1ncc(C(C)C)o1)C1CCN(Cc2cc(C)on2)C1 (stereo not given) | -6.93%
2 | Cc1nnc(CNCC2(O)CCCN(Cc3ccc(F)c(F)c3)C2=O)[nH]1 (stereo not given) | -0.578%
3 | CC1CCCN(Cc2coc(-c3cccc(F)c3)n2)C1 (stereo not given) | -5.26%
4 | Cc1ccc(CN2CCOC(C)(c3cnn(C)c3)C2)cc1 (stereo not given) | -2.83%
5 | CC(NC(=O)Nc1cccnc1N1CCCC1)c1ccn(C)c1 (stereo not given) | 25%
6 | Cc1ncsc1CCC(=O)N(C)Cc1nc2ccccc2n1C | -1.06%
7 | CN(C)C(c1ccccn1)[C@H]1CC[C@H](CNC(=O)C2CC2)CC1 (stereo not given in full) | 1.46%
8 | CN(C(=O)C1CC(=O)N(CCc2ccccc2)C1)c1nccs1 (stereo not given) | 16.6%
9 | Cc1ccc(NC(=O)c2cnc(N3CCN(C)CC3)nc2C)cc1C | -4.49%
10 | COCCCN1C(=O)CC(N2CCN(c3ccc(F)cc3)CC2)C1=O (stereo not given) | -1.4%
11 | CC(C)C(CCO)NC(=O)Nc1cc(F)ccc1-n1cccn1 (stereo not given) | -3.1%
12 | Cn1cnc(S(=O)(=O)N2C[C@@H]3CC[C@H](C2)N(Cc2ccccn2)C3)c1 | -7.24%
13 | O=C(NCC1(C(=O)O)CCC1)c1nnn(-c2ccc(F)cc2)c1C1CC1 | 11.7%
14 | CCOC(=O)CNC(=O)N1CCN(c2ncccn2)CC1 | -4.84%
15 | CC(C)n1ncc2c1NC(=O)CC21C(=O)Nc2c(Cl)cccc21 (stereo not given) | -5.46%
16 | Cc1oncc1C(=O)N1CC[C@H]2[C@H](C[C@@H](CN3CCCC3)N2C)C1 | -2.32%
17 | COc1ccc2c(c1)CCCC2CC(=O)NCC(C)(C)C(=O)O (stereo not given) | -10.7%
18 | Cc1ccc(NC(=O)CNC(C)CN2CCCCC2)c(F)c1 (stereo not given) | 6.42%
19 | Cn1cnnc1C1CCCN(C(=O)CCc2ccc3c(c2)OCO3)C1 (stereo not given) | 15.2%
20 | CNc1nc(C(=O)N2CCC3(CCCN(CCOC)C3=O)C2)cs1 (stereo not given) | -3.96%
21 | CC(C)(C)c1nc2cc(NC(=O)Cn3ccc(=O)[nH]c3=O)ccc2o1 | -13.2%
22 | c1cncc(OC[C@@H]2CC[C@H]3[C@H](CCN3Cc3cccs3)O2)c1 | -4.43%
23 | CC(C)(C)CN(CCC#N)C(=O)c1cccc(CC#N)c1 | -3.08%
24 | Cn1c2c(ccc1=O)CCN(Cc1ccoc1)CC2 | 4.43%
25 | CC(C)CN1C(=O)CC(N2CCN(c3ccc(F)cc3)CC2)C1=O (stereo not given) | 13.6%
26 | CN(C)Cc1nc(C2(NC(=O)Nc3ccccc3)CCCC2)no1 | -12.8%
27 | CN(C)c1ccc(C(=O)N2CCCC2c2noc(C3CC3)n2)nn1 (stereo not given) | 13.8%
28 | N#Cc1cccnc1N1CCCC(CO)(Cc2ccc(F)cc2)C1 (stereo not given) | -5.86%

Row | SMILES | cytotoxicity at 70.5 h
29 | Nc1ncnc2nc(C3CCN(C(=O)Cc4ccc(F)cc4)C3)ccc12 (stereo not given) | -9.46%
30 | COCCC1(CNC(=O)NCC2CCCS2)CCCC1 (stereo not given) | -3.7%
31 | NC(=O)COCCNC(=O)Nc1sc2ccccc2c1Cl | -9.32%
32 | CCS(=O)(=O)NC(C(=O)NC)c1ccc(F)c(F)c1 (stereo not given) | 2.45%
33 | Cc1cccc(CNC(=O)CCc2c(C)nc3cc(O)nn3c2C)n1 | -14%
34 | CC(C)Oc1cccc(C(=O)C2CCCN(C(=O)c3ccnn3C)C2)c1 (stereo not given) | 19.8%
35 | CCC(C)N1C(=O)c2ccc(C(=O)NCCc3c[nH]cn3)cc2C1=O (stereo not given) | -2.09%
36 | Cc1cccc(C(C(=O)NCCCc2nnc3ccccn23)N(C)C)c1 (stereo not given) | 20.2%
37 | Cc1cccc(C(=O)N2CCCSCC2CN2CCCC2)c1 (stereo not given) | -0.415%
38 | Cn1ncc2c(=O)[nH]c(N3CCCC3c3cccs3)nc21 (stereo not given) | 17.2%
39 | Cc1noc(C)c1CN1C[C@H]2CN(Cc3cccc(F)c3)C[C@H]2C1 | -1.37%
40 | CC(C)C(C(=O)NC1CCOCC1)n1cnc2cc(F)c(F)cc21 (stereo not given) | 1.78%
41 | COc1ccc(OCc2cc(C(=O)N3CCCCO3)n[nH]2)c(Cl)c1 | -19.5%
42 | CCCn1nccc1C(=O)Nc1nc(C)c(C)s1 | 11.9%
43 | CN1CCC(N2CCOC[C@H]2c2nc(C(C)(C)C)c[nH]2)CC1 | 0.765%
44 | CCN1C(=O)CCCC12CCCN(C(=O)c1cc(C)oc1C)C2 (stereo not given) | -9.36%
45 | COCCN1CCO[C@@H]2CN(C(=O)Cc3cccc(F)c3)CC[C@@H]2C1 | -0.585%
46 | CC(=O)N1CCCC(Cc2nccn2C)C1 (stereo not given) | -5.45%
47 | CC(C)(C)NC(=O)N1CCC(Oc2ccc(C(F)(F)F)cn2)CC1 | -6.24%
48 | Cc1nc(N(C)C)nc(C)c1NC(=O)c1ccco1 | -3.93%
49 | Cc1ncncc1C(=O)N1CCOC(C(=O)NC2CCCC2)C1 (stereo not given) | -1.76%
50 | CCn1cc(NC(=O)NCC(c2cccc(F)c2)N(C)C)cn1 (stereo not given) | -4.54%
51 | NCC1CCN(c2cnn(CCCn3cccn3)c(=O)c2)CC1 | -8.18%
52 | COc1ccc(C(O)CN2CC(n3cc(C)cn3)C2)cc1 (stereo not given) | -8.25%
53 | Cc1cc(C(C)NC(=O)c2cnc3onc(C)c3c2)c(C)o1 (stereo not given) | -5.78%
54 | CC1(C(=O)NCc2ccsc2)CCOCC1 | -8.16%
55 | COc1ccnc(N2CCN(CC(=O)N3CCOC(C)C3)CC2)n1 (stereo not given) | -8.38%
